Test in all cases: relative viability (nuclei count vs DMSO), 5 days (fraction); higher = more cells survive
Compound in test [1]: CC(C)CCN1c2nc(Nc3cc(F)c(O)c(F)c3)ncc2N(C)C(=O)C1C [BI-D1870] + Cc1cc(Nc2cc(N3CCN(C)CC3)nc(Sc3ccc(NC(=O)C4CC4)cc3)n2)n[nH]1 [Tozasertib] (partner 0.1 µM)
An outline of the steps:
(§1)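 Lung cancer cell lines were pin-tool dosed in 1536-well plates on the day after seeding, with either a lone drug or a fixed anchor-drug dose plus five library-drug doses (not always all listed) in √10 steps. Nuclei were counted on 4× images after 5 days. Relative viability is the ratio of treated-well to vehicle-well nuclei counts, with each value a median of duplicate plates.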

Compound in test [2]: O=c1ncccn1[C@@H]1O[C@H](CO)[C@@H](O)[C@H]1O [Zebularine] + O=C(c1cc(Cc2n[nH]c(=O)c3ccccc23)ccc1F)N1CCN(C(=O)C2CC2)CC1 [Olaparib] (partner 8 µM)
In outline:
as §1

Compound in test [3]: O=c1ncccn1[C@@H]1O[C@H](CO)[C@@H](O)[C@H]1O [Zebularine] + CC(C)C[C@H](NC(=O)[C@H](Cc1ccccc1)NC(=O)c1cnccn1)B(O)O [Bortezomib] (partner 0.002 µM)
In outline:
as §1

Compound in test [4]: O=c1ncccn1[C@@H]1O[C@H](CO)[C@@H](O)[C@H]1O [Zebularine] + Cc1nc(Nc2ncc(C(=O)Nc3c(C)cccc3Cl)s2)cc(N2CCN(CCO)CC2)n1 [Dasatinib] (partner 0.075 µM)
In outline: as §1

In the case of UMC-11, the relative viability in test [1] (first compound 0.04 µM) is 0.197; in test [1] (first compound 0.1265 µM), 0.205; in test [1] (first compound 0.4 µM) it was 0.195; in test [1] (first compound 1.265 µM) it was 0.191; in test [1] (first compound 4 µM), 0.188; in test [2] (first compound 1 µM) it was 0.407. Besides, the relative viability in test [2] (first compound 3.162 µM) is 0.377; in test [2] (first compound 10 µM) it was 0.346; in test [2] (first compound 31.62 µM), 0.362; in test [2] (first compound 100 µM), 0.293; in test [3] (first compound 1 µM), 0.728; in test [3] (first compound 3.162 µM) it was 0.844. The relative viability in test [3] (first compound 10 µM) stood at 0.45; in test [3] (first compound 31.62 µM), 0.538; in test [3] (first compound 100 µM) it was 0.297; in test [4] (first compound 1 µM), 0.514; in test [4] (first compound 3.162 µM) it was 0.471; in test [4] (first compound 10 µM) it was 0.205. Moreover, the relative viability in test [4] (first compound 31.62 µM) amounted to 0.436; in test [4] (first compound 100 µM), 0.324.

The values are drawn from the supplement of paper PMC10307832.
